Laboratory results published in PMC11474028, “Lipopeptide antibiotics disrupt interactions of undecaprenyl phosphate with UptA” (Proceedings of the National Academy of Sciences of the …, 2024).
Entries after “also recorded” stand apart in the source; their conditions may differ.

Biological target: UptA (Bacillus subtilis, UniProt O31823)
Assay: Native MS competition of C55-P and phospholipids for UptA binding
Settings: 4 µM UptA and 10 µM DOPG or DOPE, increasing C55-P up to 20 µM, on ice 15 min
Description: To investigate whether or not C55-P can outcompete phospholipids in binding to UptA, we incubated solutions containing UptA-DOPG with increasing concentrations of C55-P. Spectra were recorded after aliquots of the solution were equilibrated on ice for 15 min. […] We therefore hypothesised that phospholipids should be unable to outcompete C55-P bound to UptA. To test this hypothesis, we incubated UptA with C55-P and then equilibrated aliquots with an increasing concentration of DOPG. […]
The chloroform layer containing the total lipids was recovered into a clean glass vial, and the organic solvent was evaporated in a SpeedVac for 16 h. Lipid film was resuspended 200 mM ammonium acetate, 0.05% LDAO (pH 8.0) to ~0.5 mg/mL for the binding experiments.
Sample preparation for native MS
Before measurements, the protein was buffer-exchanged into 0.05% LDAO, 200 mM ammonium acetate (“MS buffer”) at the desired pH using a centrifugal buffer exchange device (Micro Bio -Spin 6, Bio-Rad). Stock solutions of lipids were prepared from chloroform/methanol solution by evaporating aliquots of known volume in a SpeedVac. After drying, the lipid films were weighed and resuspended to a final concentration of 0.5 mM in 200 mM ammonium acetate (pH8) and 0.05% LDAO by vertexing. Stock solutions of 0.5 mM amphomycin, aspartocin D, daptomycin and bacitracin, were made in the same buffer. All experiments were repeated three times from newly prepared stock solutions.
About 3 μL protein aliquot was transferred into a gold-coated borosilicate capillary (Harvard Apparatus) and was mounted on the nano ESI source of a Q-Exactive hybrid quadrupole-Orbitrap mass spectrometer (Thermo Fisher Scientific, Bremen, Germany). The instrument settings were 1.2 kV capillary voltage, S-lens RF 200%, argon UHV pressure 3.3 × 10−10 mbar, the capillary temperature was set to 200 °C, and resolution of the instrument was set to 17,500 at a transie nt time of 64 ms. […] The resulting fragments were detected in the Orbitrap (R = 280,000 @ m/z 200), averaging ~500 transients to maximise the signal-to-noise ratio. […]

UptA, sequence (O31823 whole entry): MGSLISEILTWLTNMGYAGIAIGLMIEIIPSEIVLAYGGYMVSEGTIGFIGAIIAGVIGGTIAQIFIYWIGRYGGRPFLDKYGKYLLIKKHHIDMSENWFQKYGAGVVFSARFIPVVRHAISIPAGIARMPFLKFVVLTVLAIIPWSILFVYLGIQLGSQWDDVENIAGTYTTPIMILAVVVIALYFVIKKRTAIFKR

SMILES: CC(C)=CCC/C(C)=C/CC/C(C)=C/CC/C(C)=C\CC/C(C)=C\CC/C(C)=C\CC/C(C)=C\CC/C(C)=C\CC/C(C)=C\CC/C(C)=C\CC/C(C)=C\COP(=O)(O)O [C55-P, undecaprenyl phosphate]
- displacement of phospholipid from UptA by C55-P (in words): C55-P has displaced most of DOPG from UptA; also recorded: C55-P effectively outcompete DOPE for UptA binding
